From patent publication US4876266A, “1-aralkyl-2-mercaptoimidazolines as DBH inhibitors” (SmithKline Beckman Corporation, priority 1987, dated 1989)

Assays:
DBH = conditions: significance of the observation is uncertain; cited from earlier work
[1] = test system: spontaneously hypertensive rats; experiment: mean arterial blood pressure in spontaneously hypertensive rats, indwelling cannulae in the tail arteries; format: in vivo, rat; conditions: 50 mg/kg orally; within approximately
Protocol: Further, spontaneously hypertensive rats were treated with a suspension or solution of 1-(3,5-difluorobenzyl)-2-mercaptoimidazoline at a dose of 50 mg/kg orally and mean arterial blood pressure was monitored for 260 minutes using indwelling cannulae in the tail arteries. […] Maximum blood pressure reduction was approximately 15 to 20 mm Hg.

[2] = molecular target: T1, dopamine-β-hydroxylase (DBH) (Bos taurus, UniProt P15101); experiment: in vitro DBH inhibition, conversion of tyramine to octopamine in the presence of DBH, spectrophotometric absorbance at 330 nm; format: biochemical; conditions: concentration of compound at which DBH activity was halved
T1 sequence (P15101 1-610): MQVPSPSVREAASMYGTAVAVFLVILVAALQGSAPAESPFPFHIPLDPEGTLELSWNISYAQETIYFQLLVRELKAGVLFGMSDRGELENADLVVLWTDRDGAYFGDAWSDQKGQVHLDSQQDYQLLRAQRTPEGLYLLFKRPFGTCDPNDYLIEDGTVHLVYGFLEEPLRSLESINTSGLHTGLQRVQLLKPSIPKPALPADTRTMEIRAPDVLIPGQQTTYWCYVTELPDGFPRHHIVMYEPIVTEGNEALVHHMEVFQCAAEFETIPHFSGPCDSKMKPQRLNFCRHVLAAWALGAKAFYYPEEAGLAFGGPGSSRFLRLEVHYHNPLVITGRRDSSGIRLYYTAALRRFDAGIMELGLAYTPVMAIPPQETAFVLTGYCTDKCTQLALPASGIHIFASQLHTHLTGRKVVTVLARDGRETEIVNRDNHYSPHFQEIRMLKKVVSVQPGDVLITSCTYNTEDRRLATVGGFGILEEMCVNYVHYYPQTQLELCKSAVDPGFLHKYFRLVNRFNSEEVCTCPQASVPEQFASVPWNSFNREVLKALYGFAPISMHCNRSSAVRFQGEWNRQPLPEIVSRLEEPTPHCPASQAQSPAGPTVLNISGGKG
Protocol: Listed in Table III are the compounds of the invention that were tested for in vitro DBH inhibition by a standard procedure for assaying conversion of tyramine to octopamine in the presence of DBH. J. J. Pisano, et al., Biochim. Biophys. Acta, 43, 566-568 (1960). Octopamine was assayed following sodium periodate oxidation to p-hydroxybenzaldehyde by measuring spectrophotometric absorbance at 330 nm.

Row | IC50 [2] | Compound | DBH levels in treated patients (DBH) | time after treatment to significant blood pressure reductions [1]
1 | – | COC(=O)[C@H]1[C@H]2C[C@@H]3c4[nH]c5cc(OC)ccc5c4CCN3C[C@H]2C[C@@H](OC(=O)c2cc(OC)c(OC)c(OC)c2)[C@@H]1OC [reserpine] | lowered DBH levels | –
2 | 1.2 µM | Fc1cc(F)cc(CN2CCN=C2S)c1 [1-(3,5-Difluorobenzyl)-2-mercaptoimidazoline] | – | ≤ 30 min
3 | 10 µM | S=C1NCCN1Cc1ccccc1 [1-Benzyl-2-mercaptoimidazoline] | – | –
4 | – | CC(N)(Cc1ccc(O)c(O)c1)C(=O)O (stereo not drawn) [alpha-methyl-DOPA] | lowered DBH levels | –
